Measurements: patent publication US10758534B2 (Vertex Pharmaceuticals Incorporated, priority 2014, dated 2020)

Target: T1, F508del (Homo sapiens, UniProt P13569, DEL508-508)
T1 construct: expressed in transfected cells
Experiment: Protocol 1: membrane potential optical assay (FLIPR III, voltage sensing dye), identification of potentiator compounds
Assay type: cell-based
Details: Table 3, compounds of Table 1
In short: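 NIH 3T3 fibroblasts stably expressing F508del were cultured at 27° C for 24 hrs for temperature correction, then treated with compounds or DMSO and loaded with a voltage-sensing redistribution dye. Forskolin added with a Cl⁻ gradient activated the channel; membrane-potential fluorescence on FLIPR III reported increased gating.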

T1 sequence (P13569 with tags, fused parts or gaps DEL508-508): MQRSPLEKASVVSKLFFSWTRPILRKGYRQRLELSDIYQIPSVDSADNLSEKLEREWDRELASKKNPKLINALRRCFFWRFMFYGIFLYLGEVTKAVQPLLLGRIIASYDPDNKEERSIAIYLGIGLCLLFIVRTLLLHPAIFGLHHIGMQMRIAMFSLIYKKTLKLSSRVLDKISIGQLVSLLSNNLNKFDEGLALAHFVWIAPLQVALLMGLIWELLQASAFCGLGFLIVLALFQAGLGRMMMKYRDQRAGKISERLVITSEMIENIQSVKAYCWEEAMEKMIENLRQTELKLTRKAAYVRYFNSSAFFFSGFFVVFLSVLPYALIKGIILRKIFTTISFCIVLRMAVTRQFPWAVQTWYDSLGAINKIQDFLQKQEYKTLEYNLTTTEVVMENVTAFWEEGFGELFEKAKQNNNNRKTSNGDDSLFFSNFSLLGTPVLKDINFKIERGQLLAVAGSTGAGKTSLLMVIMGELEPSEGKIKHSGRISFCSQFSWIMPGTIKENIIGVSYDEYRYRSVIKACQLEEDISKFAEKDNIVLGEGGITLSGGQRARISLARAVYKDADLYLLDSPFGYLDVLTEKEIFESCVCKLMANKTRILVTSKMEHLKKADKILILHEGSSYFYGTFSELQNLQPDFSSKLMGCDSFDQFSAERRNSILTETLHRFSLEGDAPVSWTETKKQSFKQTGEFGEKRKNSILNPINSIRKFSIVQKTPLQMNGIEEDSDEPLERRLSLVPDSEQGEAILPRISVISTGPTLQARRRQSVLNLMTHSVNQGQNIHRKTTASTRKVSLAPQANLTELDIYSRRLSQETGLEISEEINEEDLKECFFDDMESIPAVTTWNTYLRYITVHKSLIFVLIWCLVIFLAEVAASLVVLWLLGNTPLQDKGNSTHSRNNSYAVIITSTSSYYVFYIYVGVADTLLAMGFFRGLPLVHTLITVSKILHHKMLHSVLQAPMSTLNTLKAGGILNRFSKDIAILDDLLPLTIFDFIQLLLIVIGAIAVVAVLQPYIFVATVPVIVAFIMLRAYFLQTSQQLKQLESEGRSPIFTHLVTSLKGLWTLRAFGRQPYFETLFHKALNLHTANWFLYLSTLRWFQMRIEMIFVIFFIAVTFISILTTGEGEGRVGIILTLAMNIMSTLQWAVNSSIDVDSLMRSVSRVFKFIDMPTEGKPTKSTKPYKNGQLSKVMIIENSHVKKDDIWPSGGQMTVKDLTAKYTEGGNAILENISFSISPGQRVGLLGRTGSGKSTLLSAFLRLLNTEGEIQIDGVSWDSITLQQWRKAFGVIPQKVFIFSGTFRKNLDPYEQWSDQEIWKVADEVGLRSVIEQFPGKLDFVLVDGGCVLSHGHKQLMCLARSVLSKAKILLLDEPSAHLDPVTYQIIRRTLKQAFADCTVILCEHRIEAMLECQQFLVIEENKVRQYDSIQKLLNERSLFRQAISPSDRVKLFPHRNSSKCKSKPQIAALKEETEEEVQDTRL

EC30	SMILES
+++ (“+++” means <3 uM)	CCN(CC)c1cc(-c2ccc(C(=O)NS(=O)(=O)c3cccc(N)n3)c(N3C[C@@H](C)CC3(C)C)n2)cc(C)n1 [Compound 1739, N-[(6-amino-2-pyridyl)sulfonyl]-6-[2-(diethylamino)-6-methyl-4-pyridyl]-2-[(4S)-2,2,4-trimethylpyrrolidin-1-yl]pyridine-3-carboxamide]
+++ (“+++” means <3 uM)	CC(C)Oc1ccn(-c2ccc(C(=O)NS(=O)(=O)c3cccnc3N)c(N3C[C@@H](C)CC3(C)C)n2)n1 [Compound 1844, N-[(2-amino-3-pyridyl)sulfonyl]-6-(3-isopropoxypyrazol-1-yl)-2-[(4S)-2,2,4-trimethylpyrrolidin-1-yl]pyridine-3-carboxamide]
++ (“++” means between 3 uM and 10 uM)	CC1CN(c2nc(C(C)(C)C)c(C3=CCCC4(C3)OCCO4)cc2C(=O)NS(=O)(=O)c2cccc(N)n2)C(C)(C)C1 (stereo not shown) [Compound 1469, N-[(6-amino-2-pyridyl)sulfonyl]-6-tert-butyl-5-(1,4-dioxaspiro[4.5]dec-8-en-9-yl)-2-(2,2,4-trimethylpyrrolidin-1-yl)pyridine-3-carboxamide]
+++ (“+++” means <3 uM)	C[C@@H]1CN(c2nc(-c3ccc4ccccc4c3)ccc2C(=O)NS(=O)(=O)c2ccc[nH]c2=O)C(C)(C)C1 [Compound 1803, 6-(2-naphthyl)-N-[(2-oxo-1H-pyridin-3-yl)sulfonyl]-2-[(4S)-2,2,4-trimethylpyrrolidin-1-yl]pyridine-3-carboxamide]
+++ (“+++” means <3 uM)	C[C@@H]1CN(c2nc(C(C)(C)C)c(/C=C/C(C)(C)C)cc2C(=O)NS(=O)(=O)c2cccc(N)n2)C(C)(C)C1 [Compound 1613, N-[(6-amino-2-pyridyl)sulfonyl]-6-tert-butyl-5-[(E)-3,3-dimethylbut-1-enyl]-2-[(4S)-2,2,4-trimethylpyrrolidin-1-yl]pyridine-3-carboxamide]
++ (“++” means between 3 uM and 10 uM)	C[C@@H]1CN(c2nc(-c3cnc4[nH]ccc4c3)ccc2C(=O)NS(=O)(=O)c2cccnc2N)C(C)(C)C1 [Compound 1714, N-[(2-amino-3-pyridyl)sulfonyl]-6-(1H-pyrrolo[2,3-b]pyridin-5-yl)-2-[(4S)-2,2,4-trimethylpyrrolidin-1-yl]pyridine-3-carboxamide]
+++ (“+++” means <3 uM)	COc1c(F)cc(-c2ccc(C(=O)NS(=O)(=O)c3ccc[nH]c3=O)c(N3C[C@@H](C)CC3(C)C)n2)cc1F [Compound 1801, 6-(3,5-difluoro-4-methoxy-phenyl)-N-[(2-oxo-1H-pyridin-3-yl)sulfonyl]-2-[(4S)-2,2,4-trimethylpyrrolidin-1-yl]pyridine-3-carboxamide]
+++ (“+++” means <3 uM)	CCc1ccc(-c2ccc(C(=O)NS(=O)(=O)c3cccc(N)n3)c(Oc3c(C)cc(C)cc3C)n2)cc1 [Compound 900, N-[(6-amino-2-pyridyl)sulfonyl]-6-(4-ethylphenyl)-2-(2,4,6-trimethylphenoxy)pyridine-3-carboxamide]
+++ (“+++” means <3 uM)	CCOc1cccc2c1CN(Cc1c(C)cc(C)cc1C)C2(C)C(=O)NS(=O)(=O)c1ccccc1O (stereo not shown) [Compound 1509, 4-ethoxy-N-(2-hydroxyphenyl)sulfonyl-1-methyl-2-[(2,4,6-trimethylphenyl)methyl]isoindoline-1-carboxamide]
+++ (“+++” means <3 uM)	CC(C)Oc1ccc(-c2ccc(C(=O)NS(=O)(=O)c3cccc(N)n3)c(N3CCCC3C3CC3)n2)cn1 (stereo not shown) [Compound 928, N-[(6-amino-2-pyridyl)sulfonyl]-2-(2-cyclopropylpyrrolidin-1-yl)-6-(6-isopropoxy-3-pyridyl)pyridine-3-carboxamide]
+++ (“+++” means <3 uM)	CCOc1ncc(-c2ccc(C(=O)NS(=O)(=O)c3cccc(N)n3)c(N3C[C@@H](C)CC3(C)C)n2)cc1C [Compound 1727, N-[(6-amino-2-pyridyl)sulfonyl]-6-(6-ethoxy-5-methyl-3-pyridyl)-2-[(4S)-2,2,4-trimethylpyrrolidin-1-yl]pyridine-3-carboxamide]
+++ (“+++” means <3 uM)	CC(C)c1ccccc1Oc1nc(C(C)(C)C)ccc1C(=O)NS(=O)(=O)c1cccc(N)n1 [Compound 1031, N-[(6-amino-2-pyridyl)sulfonyl]-6-tert-butyl-2-(2-isopropylphenoxy)pyridine-3-carboxamide]
+++ (“+++” means <3 uM)	CC1CN(c2ncccc2C(=O)NS(=O)(=O)c2cccc(Nc3cccc(Cl)c3Cl)n2)C(C)(C)C1 (stereo not shown) [Compound 1906, N—[[6-(2,3-dichloroanilino)-2-pyridyl]sulfonyl]-2-(2,2,4-trimethylpyrrolidin-1-yl)pyridine-3-carboxamide]
+++ (“+++” means <3 uM)	CC(Oc1nc(N2C[C@@H](C)CC2(C)C)c(C(=O)NS(=O)(=O)c2cccc(N)n2)cc1F)C1CCOCC1 (stereo partly drawn) [Compound 1891, N-[(6-amino-2-pyridyl)sulfonyl]-5-fluoro-6-(1-tetrahydropyran-4-ylethoxy)-2-[(4S)-2,2,4-trimethylpyrrolidin-1-yl]pyridine-3-carboxamide]
+++ (“+++” means <3 uM)	COc1cc(F)ccc1-c1ccc(C(=O)NS(=O)(=O)c2cccc(N)n2)c(Oc2c(C)cc(C)cc2C)n1 [Compound 830, N-[(6-amino-2-pyridyl)sulfonyl]-6-(4-fluoro-2-methoxy-phenyl)-2-(2,4,6-trimethylphenoxy)pyridine-3-carboxamide]
+++ (“+++” means <3 uM)	Cn1ccc2cccc(Oc3nc(C(C)(C)C)ccc3C(=O)NS(=O)(=O)c3cccc(N)n3)c21 [Compound 1071, N-[(6-amino-2-pyridyl)sulfonyl]-6-tert-butyl-2-(1-methylindol-7-yl)oxy-pyridine-3-carboxamide]
++ (“++” means between 3 uM and 10 uM)	COC1CC=C(c2cnc(N3CC(C)CC3(C)C)c(C(=O)NS(=O)(=O)c3cccc(N)n3)c2)CC1 (stereo not shown) [Compound 1920, N-[(6-amino-2-pyridyl)sulfonyl]-5-(4-methoxycyclohexen-1-yl)-2-(2,2,4-trimethylpyrrolidin-1-yl)pyridine-3-carboxamide]
+++ (“+++” means <3 uM)	Cc1cccc(C)c1Oc1nc(-c2cc(F)cc(OCC(C)CO)c2)ccc1C(=O)NS(=O)(=O)c1cccc(N)n1 (stereo not shown) [Compound 1797, N-[(6-amino-2-pyridyl)sulfonyl]-2-(2,6-dimethylphenoxy)-6-[3-fluoro-5-(3-hydroxy-2-methyl-propoxy)phenyl]pyridine-3-carboxamide]
+++ (“+++” means <3 uM)	COc1ccc(F)c(-c2ccc(C(=O)NS(=O)(=O)c3cccc(N)n3)c(Oc3c(C)cc(C)cc3C)n2)c1 [Compound 1178, N-[(6-amino-2-pyridyl)sulfonyl]-6-(2-fluoro-5-methoxy-phenyl)-2-(2,4,6-trimethylphenoxy)pyridine-3-carboxamide]
+++ (“+++” means <3 uM)	Cc1cc(C)c(Oc2nc(C(C)(C)C)ccc2C(=O)NS(=O)(=O)c2cnc(N)s2)c(C)c1 [Compound 1148, N-(2-aminothiazol-5-yl)sulfonyl-6-tert-butyl-2-(2,4,6-trimethylphenoxy)pyridine-3-carboxamide]
++ (“++” means between 3 uM and 10 uM)	C[C@@H]1CN(c2nc(C(C)(C)C)c(/C=C/C(=O)O)cc2C(=O)NS(=O)(=O)c2cccc(N)n2)C(C)(C)C1 [Compound 1547, (E)-3-[5-[(6-amino-2-pyridyl)sulfonylcarbamoyl]-2-tert-butyl-6-[(4S)-2,2,4-trimethylpyrrolidin-1-yl]-3-pyridyl]prop-2-enoic acid]
+++ (“+++” means <3 uM)	Cc1cc(C)c(CN2c3ccccc3C[C@@H]2C(=O)NS(=O)(=O)c2ccccc2)c(C)c1 [Compound 918, (2R)—N-(benzenesulfonyl)-1-[(2,4,6-trimethylphenyl)methyl]indoline-2-carboxamide]

SMILES	EC30
CC(C)COc1cc(F)cc(-c2ccc(C(=O)NS(=O)(=O)c3nc(N)cs3)c(N3CC(C)CC3(C)C)n2)c1 (stereo not shown) [Compound 842, N-(4-aminothiazol-2-yl)sulfonyl-6-(3-fluoro-5-isobutoxy-phenyl)-2-(2,2,4-trimethylpyrrolidin-1-yl)pyridine-3-carboxamide]	+++ (“+++” means <3 uM)
CC(C)COc1cc(F)cc(-c2ccc(C(=O)NS(=O)(=O)c3cccc(N)n3)c(N3C[C@@H](C)C[C@H](C)C3)n2)c1 [Compound 1210, N-[(6-amino-2-pyridyl)sulfonyl]-2-[(3S,5S)-3,5-dimethyl-1-piperidyl]-6-(3-fluoro-5-isobutoxy-phenyl)pyridine-3-carboxamide]	+++ (“+++” means <3 uM)
CC(C)COc1cc(F)cc(-c2ccc(C(=O)NS(=O)(=O)c3ccn[nH]3)c(N3CCCC3(C)C)n2)c1 [Compound 1302, 2-(2,2-dimethylpyrrolidin-1-yl)-6-(3-fluoro-5-isobutoxy-phenyl)-N-(1H-pyrazol-5-ylsulfonyl)pyridine-3-carboxamide]	++ (“++” means between 3 uM and 10 uM)
CC(C)COc1cccc(-c2ccc(C(=O)NS(=O)(=O)c3cccc(N)n3)c(N3CCCC3(C)C)n2)n1 [Compound 1011, N-[(6-amino-2-pyridyl)sulfonyl]-2-(2,2-dimethylpyrrolidin-1-yl)-6-(6-isobutoxy-2-pyridyl)pyridine-3-carboxamide]	+++ (“+++” means <3 uM)
CC(C)COc1cc(F)cc(-c2ccc(C(=O)NS(=O)(=O)c3cccc(N)n3)c(N3CC(C)CCC3C)n2)c1 (single isomer, unassigned) [Compound 1864, N-[(6-amino-2-pyridyl)sulfonyl]-2-(2,5-dimethyl-1-piperidyl)-6-(3-fluoro-5-isobutoxy-phenyl)pyridine-3-carboxamide]	+++ (“+++” means <3 uM)
CC(C)COc1cccc(-c2ccc(C(=O)NS(=O)(=O)c3ccc[nH]c3=O)c(N3CCC(C)CC3)n2)c1 [Compound 958, 6-(3-isobutoxyphenyl)-2-(4-methyl-1-piperidyl)-N-[(2-oxo-1H-pyridin-3-yl)sulfonyl]pyridine-3-carboxamide]	+++ (“+++” means <3 uM)
